Assay results published in patent US10960005B2, “Treatment of relapsed and/or refractory solid tumors and non-hodgkin's lymphomas” (CELGENE QUANTICEL RESEARCH, INC., priority 2016, dated 2021).
pIC50: −log10 of the molar value. Where two headings read alike, the source gives them in different places.

Tests used:
[1] = tested on: GA0087 gastric NEC patient-derived xenograft; assay: Efficacy in GA0087 gastric neuroendocrine carcinoma PDX model; conditions: for Median Tumor Volumes Day 46: head prints Day 46, title Day 53
[2] = 4-week toxicity study with 4-week recovery in mice; format: in vivo; conditions: for AUC0-24 / Cmax: Mice
[3] = Pharmacokinetics after single IV and oral dose, Cynomolgus monkeys; format: in vivo; conditions: Monkey, male
Experimental: (§1) AUClast=area under the plasma concentration-time curve from time zero to time of last measurable concentration; Cmax=maximum plasma concentration; F=oral bioavailability; hr=hour, PK=pharmacokinetic; SD=standard deviation; t1/2 z=apparent half-life of the terminal phase of the concentration-time curve; tmax=time of Cmax. In mouse, PK parameters were determined using composite plasma samples obtained from n=3animals/time point. In other species, PK parameters are from n=3 animals and values shown are mean and SD (in parentheses).

[4] = tested on: Salmonella typhimurium TA98 and TA100 strains; assay: Bacterial reverse mutation assay; format: cell-based; conditions: up to 500 μg/mL; in presence and absence of S9
[5] = 4-week toxicity study (no recovery period) in dogs (QW/Q2W); format: in vivo; conditions: for AUC0-96 / Cmax: Dogs
From the text: All animals survived to the terminal sacrifice.

MS-1 hMCC xenograft = assay: Efficacy in MS-1 hMCC xenograft (NSG mice); format: in vivo; conditions: 5 mg/kg PO 5 on/2 off; head prints Day-15, TGI analysis on Day 36
LNCaP cells = assay: LNCaP cell proliferation with DHT and irradiation; format: cell-based, human; conditions: 100 nM Compound A + 10 nM DHT + 2Gy irradiation vs DHT with irradiation or DHT with Compound A; 220 hours
Experimental: LNCaP cells are androgen-sensitive human prostate adenocarcinoma cells. […] The proliferation of the LNCap cells was monitored for 220 hours.

NCI-H841 SCLC cell line = assay: Antiproliferative activity, NCI-H841; format: cell-based, human; conditions: 3D assay; Calcein AM
[6] = tested on: LXFS 573 SCLC patient-derived xenograft; format: in vivo
[7] = tested on: LXFS 573 SCLC patient-derived xenograft; assay: Efficacy in LXFS 573 SCLC PDX model; format: in vivo, mice; conditions: for % TGI / TGI: Day 28
[8] = target: MDR1 (human P-gp) MDCK cells (Homo sapiens (Human), UniProt P08183); assay: Permeability in MDR1 (human P-gp) MDCK cells; conditions: B→A direction
Chain of MDR1 (human P-gp) MDCK cells (P08183 whole entry): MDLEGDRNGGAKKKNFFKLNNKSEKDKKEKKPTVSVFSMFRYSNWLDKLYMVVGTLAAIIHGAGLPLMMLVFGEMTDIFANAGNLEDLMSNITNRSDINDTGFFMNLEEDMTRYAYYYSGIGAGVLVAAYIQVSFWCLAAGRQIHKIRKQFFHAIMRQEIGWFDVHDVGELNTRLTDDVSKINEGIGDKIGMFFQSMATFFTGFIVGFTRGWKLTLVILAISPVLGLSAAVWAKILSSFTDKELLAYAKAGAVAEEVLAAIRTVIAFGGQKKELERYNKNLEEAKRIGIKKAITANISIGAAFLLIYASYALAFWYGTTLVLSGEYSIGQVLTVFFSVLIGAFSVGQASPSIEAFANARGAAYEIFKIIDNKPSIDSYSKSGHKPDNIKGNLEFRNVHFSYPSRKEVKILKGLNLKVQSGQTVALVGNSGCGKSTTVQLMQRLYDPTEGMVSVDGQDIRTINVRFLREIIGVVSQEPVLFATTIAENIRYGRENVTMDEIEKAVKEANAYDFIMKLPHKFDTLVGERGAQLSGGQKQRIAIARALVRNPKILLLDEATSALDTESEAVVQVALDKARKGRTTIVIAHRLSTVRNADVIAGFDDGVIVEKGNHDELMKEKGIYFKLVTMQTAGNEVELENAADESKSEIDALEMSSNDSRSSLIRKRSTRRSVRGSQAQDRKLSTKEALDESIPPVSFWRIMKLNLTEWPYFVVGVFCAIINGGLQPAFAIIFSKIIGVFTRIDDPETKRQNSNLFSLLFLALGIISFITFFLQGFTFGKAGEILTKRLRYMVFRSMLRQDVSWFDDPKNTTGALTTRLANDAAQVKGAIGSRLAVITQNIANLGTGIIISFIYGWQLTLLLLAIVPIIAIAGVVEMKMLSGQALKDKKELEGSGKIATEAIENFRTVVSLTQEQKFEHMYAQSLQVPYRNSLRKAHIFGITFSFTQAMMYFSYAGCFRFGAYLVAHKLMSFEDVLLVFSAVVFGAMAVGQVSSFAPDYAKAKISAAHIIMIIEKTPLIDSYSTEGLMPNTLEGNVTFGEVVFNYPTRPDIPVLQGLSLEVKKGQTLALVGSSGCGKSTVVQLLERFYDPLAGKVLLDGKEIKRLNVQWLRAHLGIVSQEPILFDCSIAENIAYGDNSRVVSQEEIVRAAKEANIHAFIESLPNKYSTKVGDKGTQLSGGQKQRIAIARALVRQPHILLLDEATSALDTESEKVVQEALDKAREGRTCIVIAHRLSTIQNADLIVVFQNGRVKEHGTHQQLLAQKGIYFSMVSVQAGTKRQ

[9] = Pharmacokinetics after single IV and oral dose, CD-1 mice; format: in vivo; conditions: Mouse, female
Experimental: as §1

[10] = tested on: H3K4me2 at ST18 and FREM2 gene loci in MS-1 cells; assay: ChIP-seq LSD1 occupancy and H3K4me2 status, MS-1; format: cell-based, human; conditions: 100 nM, 3 days
[11] = tested on: LU2527 lung NEC patient-derived xenograft; assay: Efficacy in LU2527 lung neuroendocrine carcinoma PDX model; conditions: 5 mg base/kg PO QD; Day 46
[12] = 5 mg base/kg/dose QD×5/week, females
[13] = 5 mg base/kg/dose QD×5/week, males
[14] = 25 mg base/kg/dose QOD×3/week, females
[15] = 45 mg base/kg/dose QD×5/week, females
[16] = 45 mg base/kg/dose QD×5/week, males
[17] = Day 1, 15 mg base/kg/dose oral, 5 days on/2 days off, F
[18] = Day 26, 5 mg base/kg/dose oral, 5 days on/2 days off, F
[19] = Day 26, 5 mg base/kg/dose oral, 5 days on/2 days off, M
[20] = Day 26, 15 mg base/kg/dose oral, 5 days on/2 days off, M
[21] = Day 26, 25 mg base/kg/dose oral, QOD × 3/week, F
[22] = Day 26, 25 mg base/kg/dose oral, QOD × 3/week, M
[23] = Day 26, 45 mg base/kg/dose oral, 5 days on/2 days off, F
[24] = Day 26, 45 mg base/kg/dose oral, 5 days on/2 days off, M
[25] = Day 1, 0.125 mg base/kg/dose oral QW, Sexes Combined
[26] = Day 1, 0.25 mg base/kg/dose oral QW, M
[27] = Day 1, 0.5 mg base/kg/dose oral Q2W, M
[28] = Day 15, 0.125 mg base/kg/dose oral QW, F
[29] = Day 15, 0.125 mg base/kg/dose oral QW, M
[30] = Day 15, 0.125 mg base/kg/dose oral QW, Sexes Combined
[31] = Compound A 1 mg/kg in combination with etoposide 24 mg/kg

COc1ccc(-c2c(-c3ccc(C#N)c(F)c3)nc(N3CCC(N)CC3)n(C)c2=O)cc1F [Compound A]
Median Tumor Volumes Day 46 ([1]; 1.5 mg base/kg PO QD × 53): 706.4 mm^3 | Median Tumor Volumes Diff. ([1]; 5 mg base/kg PO QD × 53): 836.3 mm^3 | Median Tumor Volumes Day 46 ([1]; 5 mg base/kg PO QD × 53): 673.2 mm^3 | mean steady state AUC0-24 [2, 12]: 2,410 ng·hr/mL | mean steady state Cmax [2, 12]: 276 ng/mL | mean steady state AUC0-24 [2, 13]: 2,010 ng·hr/mL | mean steady state Cmax [2, 13]: 276 ng/mL | mean steady state AUC0-24 [2, 14]: 17,500 ng·hr/mL | mean steady state Cmax [2, 14]: 1,740 ng/mL | mean steady state Cmax ([2]; 25 mg base/kg/dose QOD×3/week, males): 1,450 ng/mL | animals sacrificed in moribund condition ([2]; 45 mg base/kg/dose QD×5/week, 4 males and 1 female, TK subgroup): Five | mean steady state AUC0-24 [2, 15]: 26,500 ng·hr/mL | mean steady state Cmax [2, 15]: 2,130 ng/mL | mean steady state AUC0-24 [2, 16]: 29,000 ng·hr/mL | mean steady state Cmax [2, 16]: 2,620 ng/mL | AUC0-24 ([2]; Day 1, 5 mg base/kg/dose oral, 5 days on/2 days off, F): 1500 ng·h/mL | Cmax ([2]; Day 1, 5 mg base/kg/dose oral, 5 days on/2 days off, M): 230 ng/mL | AUC0-24 [2, 17]: 9680 ng·h/mL | Cmax [2, 17]: 850 ng/mL | AUC0-24 ([2]; Day 1, 15 mg base/kg/dose oral, 5 days on/2 days off, M): 13000 ng·h/mL | AUC0-24 [2, 18]: 2410 ng·h/mL | Cmax [2, 18]: 276 ng/mL | AUC0-24 [2, 19]: 2010 ng·h/mL | Cmax [2, 19]: 275 ng/mL | AUC0-24 [2, 20]: 7960 ng·h/mL | Cmax [2, 20]: 628 ng/mL | AUC0-24 [2, 21]: 17500 ng·h/mL | Cmax [2, 21]: 1740 ng/mL | AUC0-24 [2, 22]: 17800 ng·h/mL | Cmax [2, 22]: 1450 ng/mL | AUC0-24 [2, 23]: 26500 ng·h/mL | Cmax [2, 23]: 2130 ng/mL | AUC0-24 [2, 24]: 29000 ng·h/mL | Cmax [2, 24]: 2620 ng/mL | STD10 ([2]; QD ×5/week schedule): ≥ 45 mg base/kg/dose | AUC∞ ([3]; single IV 1 mg base/kg): 983 ng·h/mL | CL ([3]; single IV 1 mg base/kg): 18 mL/min/kg | Vss ([3]; single IV 1 mg base/kg): 17119 mL/kg | t1/2,z ([3]; single IV 1 mg base/kg): 12.0 h | % F ([3]; single oral 5 mg base/kg): 82% | AUClast ([3]; single oral 5 mg base/kg): 3618 ng·h/mL | Cmax ([3]; single oral 5 mg base/kg): 187 ng/mL | t1/2,z ([3]; single oral 5 mg base/kg): 12.9 h | tmax ([3]; single oral 5 mg base/kg): 6.0 h | mutagenicity [4]: negative for mutagenicity | combined Day 15 mean AUC ([5]; 0.125 mg base/kg/dose QW): 127 ng·h/mL | combined Day 15 mean Cmax ([5]; 0.125 mg base/kg/dose QW): 5.26 ng/mL | combined Day 15 mean AUC ([5]; 0.25 mg base/kg/dose QW): 287 ng·h/mL | combined Day 15 mean Cmax ([5]; 0.25 mg base/kg/dose QW): 11.0 ng/mL | combined Day 15 mean AUC ([5]; 0.5 mg base/kg/dose Q2W): 636 ng·h/mL | combined Day 15 mean Cmax ([5]; 0.5 mg base/kg/dose Q2W): 22.0 ng/mL | AUC0-96 ([5]; Day 1, 0.125 mg base/kg/dose oral QW, F): 127 ng·h/mL | AUC0-96 [5, 25]: 120 ng·h/mL | Cmax [5, 25]: 5.79 ng/mL | AUC0-96 [5, 26]: 335 ng·h/mL | Cmax [5, 26]: 11.9 ng/mL | Cmax ([5]; Day 1, 0.25 mg base/kg/dose oral QW, Sexes Combined): 12.0 ng/mL | Cmax ([5]; Day 1, 0.5 mg base/kg/dose oral Q2W, F): 26.6 ng/mL | AUC0-96 [5, 27]: 762 ng·h/mL | Cmax [5, 27]: 24.0 ng/mL | Cmax ([5]; Day 1, 0.5 mg base/kg/dose oral Q2W, Sexes Combined): 25.3 ng/mL | AUC0-96 [5, 28]: 141 ng·h/mL | Cmax [5, 28]: 5.54 ng/mL | AUC0-96 [5, 29]: 107 ng·h/mL | Cmax [5, 29]: 4.89 ng/mL | AUC0-96 [5, 30]: 127 ng·h/mL | Cmax [5, 30]: 5.26 ng/mL | Cmax ([5]; Day 15, 0.25 mg base/kg/dose oral QW, Sexes Combined): 11.0 ng/mL | Cmax ([5]; Day 15, 0.5 mg base/kg/dose oral Q2W, Sexes Combined): 22.0 ng/mL | treatment-related adverse finding ([5]; single female, 0.25 mg base/kg/dose QW): Moderate acute inflammation in the ileum and marked acute inflammation in the cecum | Median Tumor Volumes Day-15 (MS-1 hMCC xenograft): 129 mm^3 | LNCaP cell proliferation (LNCaP cells): significantly inhibits LNCaP cell proliferation | pIC50 (NCI-H841 SCLC cell line): < 3.30 | % TGD [6, 31]: 38% | TGD [6, 31]: 16 days | median TTE [6, 31]: 59 days | survivors on Day 133 ([6]; Compound A 1 mg/kg in combination with etoposide 24 mg/kg, of eight): 1 | TGD ([6]; Compound A 2.5 mg/kg in combination with etoposide 24 mg/kg): 79 days | survivors on Day 133 ([6]; Compound A 2.5 mg/kg in combination with etoposide 24 mg/kg, of eight): 3 | TGD ([6]; Compound A 5 mg/kg in combination with etoposide 24 mg/kg): 91 days | survivors on Day 133 ([6]; Compound A 5 mg/kg in combination with etoposide 24 mg/kg, of eight): 8 | study survivors on Day 133 ([6]; Compound A monotherapy 5 mg/kg, of eight): seven | % TGI ([7]; 5 mg base/kg PO QD × 28): 72% | TGI ([7]; 5 mg base/kg oral): 78% | TGI ([7]; 7.5 mg base/kg oral): 58% | % TGI ([7]; 10 mg base/kg PO QD × 28): 71% | TGI ([7]; 10 mg/kg oral): 71% | mean body weight losses ([7]; mouse, in vivo): ≤ 3% | permeability [8]: 1.65e-05 cm/s | AUC∞ ([9]; single IV 5 mg base/kg): 2664 ng·h/mL | CL ([9]; single IV 5 mg base/kg): 32 mL/min/kg | Vss ([9]; single IV 5 mg base/kg): 7510 mL/kg | t1/2,z ([9]; single IV 5 mg base/kg): 3.8 h | % F ([9]; single oral 10 mg base/kg): 38% | Cmax ([9]; single oral 10 mg base/kg): 510 ng/mL | t1/2,z ([9]; single oral 10 mg base/kg): 1.7 h | tmax ([9]; single oral 10 mg base/kg): 30 min | H3K4me2 at the LSD1 binding site of ST18 gene [10]: increased H3K4me2 | % TGI [11]: 84%
